13 compounds from patent US20110313672A1, “CELLULAR ANTIOXIDANT ACTIVITY (CAA) ASSAY” (CORNELL UNIVERSITY, priority 2007, published 2011) can be followed below.

System in one data set: not listed separately
The data set is described as follows: in vitro. To be noted: human. The method, then: (§1) Briefly, HepG2 cells are seeded at 4×10^4/well on a 96-well plate in 100 μL growth medium and incubated for 24 h at 37° C. The medium is removed and the cells are washed with PBS. Treatments of fruit extracts or antioxidant compounds in 100 μL treatment medium (Williams' Medium E supplemented with 2 mM L-glutamine and 10 mM Hepes) are applied to the cells and the plates are incubated at 37° C. for 24 h. The treatment medium is removed and the cells are washed with PBS. A volume of 50 μL/well methylene blue staining solution (98% HBSS, 0.67% glutaraldehyde, 0.6% methylene blue) is applied to each well and the plate is incubated at 37° C. for 1 h.
(§2) Excess dye is removed by immersing the plate in fresh deionized water until the water appears clear. The excess water should be tapped out of the wells and the plate allowed to air-dry briefly before addition of 100 μL elution solution (49% PBS, 50% ethanol, 1% acetic acid) to each well. The microplate is then placed on a bench-top shaker for 20 minutes to allow uniform elution. The absorbance is read at 570 nm with blank subtraction using, for example a MRX II DYNEX spectrophotometer (DYNEX Inc., Chantilly, Va.). Concentrations of pure compounds or fruit extracts that decrease the absorbance by more than 10% when compared to the control are considered to be cytotoxic.
(§3) Cytotoxicity was measured using the method of Oliver et al. (31) with modifications by our laboratory (32). […] The medium was removed and the cells were washed with PBS. Treatments of fruit extracts or antioxidant compounds in 100 μL treatment medium (Williams' Medium E supplemented with 2 mM L-glutamine and 10 mM Hepes) were applied to the cells and the plates were incubated at 37° C. for 24 h. The treatment medium was removed and the cells were washed with PBS. A volume of 50 μL/well methylene blue staining solution (98% HBSS, 0.67% glutaraldehyde, 0.6% methylene blue) was applied to each well and the plate was incubated at 37° C. for 1 h. The dye was removed and the plate was immersed in fresh deionized water three times, or until the water was clear. The water was tapped out of the wells and the plate was allowed to air-dry briefly before 100 μL elution solution (49% PBS, 50% ethanol, 1% acetic acid) was added to each well. The microplate was placed on a bench-top shaker for 20 minutes to allow uniform elution. The absorbance was read at 570 nm with blank subtraction using the MRX II DYNEX spectrophotometer (DYNEX Inc., Chantilly, Va.). Concentrations of pure compounds or fruit extracts that decreased the absorbance by more than 10% when compared to the control were considered to be cytotoxic.
(§4) The median cytotoxic concentration (CC50) was calculated for each fruit.
(§5) Briefly, HepG2 cells were seeded at 4×10^4/well on a 96-well plate in 100 μL growth medium and incubated for 24 h at 37° C. The medium was removed, and the cells were washed with PBS. Flavonoids in 100 μL growth medium were applied to the cells, and the plates were incubated at 37° C. for 24 h. The medium was removed, and the cells were washed with PBS before a volume of 50 μL/well methylene blue staining solution (98% HBSS, 0.67% glutaraldehyde, 0.6% methylene blue) was applied to each well, and the plate was incubated at 37° C. for 1 h. The dye was removed, and the plate was immersed in fresh deionized water until the water was clear. The water was tapped out of the wells, and the plate was allowed to air-dry briefly before 100 μL of elution solution (49% PBS, 50% ethanol, 1% acetic acid) was added to each well. The microplate was placed on a benchtop shaker for 20 min to allow uniform
(§6) elution. The absorbance was read at 570 nm with blank subtraction using the MRX II Dynex spectrophotometer (Dynex Inc., Chantilly, Va.). The median cytotoxic concentration (CC50) was calculated for each flavonoid.
In turn, `O=C(O[C@@H]1Cc2c(O)cc(O)cc2O[C@@H]1c1ccc(O)c(O)c1)c1cc(O)c(O)c(O)c1` [ECG, (−)-epicatechin gallate] showed a CC50 at 24 h above 200 µM.
For `Oc1cc(O)c2c(c1)O[C@H](c1cc(O)c(O)c(O)c1)[C@H](O)C2` [EGC, (−)-epigallocatechin], the CC50 at 24 h is above 200 µM.
On the same count and under the same terms, the figure for `O=c1c(O)c(-c2ccc(O)cc2)oc2cc(O)cc(O)c12` [Kaempferol, kaempferol] is above 100 µM; for `O=c1cc(-c2ccc(O)c(O)c2)oc2cc(O)cc(O)c12` [Luteolin, luteolin] it is above 80 µM; for `O=c1c(O)c(-c2cc(O)c(O)c(O)c2)oc2cc(O)cc(O)c12` [Myricetin, myricetin] it is above 200 µM.
The same measure, in the same setting: the figure for `O=c1c(O)c(-c2ccc(O)c(O)c2)oc2cc(O)cc(O)c12` [Quercetin, quercetin] is above 100 µM; for `O=c1c(-c2ccc(O)cc2)coc2cc(O)cc(O)c12` [genistein] it is above 100 µM.

Still in this data set, the particulars now being: human, HepG2 cells.
As to `O=C1c2c(O)cc(O)cc2O[C@H](c2ccc(O)c(O)c2)[C@H]1O` [Taxifolin, taxifolin], the CC50 at 24 h was above 200 µM.
Still for that read-out and setting: the figure for `O=c1c(O)c(-c2ccccc2)oc2cc(O)cc(O)c12` [galangin] is above 80 µM; for `O=c1c(O)c(-c2ccc(O)cc2O)oc2cc(O)cc(O)c12` [morin] it is above 200 µM.
In the case of `O=C1C[C@@H](c2ccc(O)cc2)Oc2cc(O)cc(O)c21` [naringenin], the CC50 at 24 h was above 200 µM.

The subject of another data set is HepG2 cells. The data set is described as follows: Cytotoxicity toward HepG2 cells (methylene blue staining). To be noted: Example 1; dose at which the cell number is reduced by more than 10% after 24 h treatment. How it is done: as §1, §2, §3, §4, §5, §6
For `O=C1c2c(O)cc(O)cc2O[C@H](c2ccc(O)c(O)c2)[C@H]1O` [Taxifolin, taxifolin], the “Cytotoxicity (cytotoxic concentration)” value was found to be 150 µM.
Take (−)-epigallocatechin gallate [EGCG]: the “Cytotoxicity (cytotoxic concentration)” value is above 100 µM.

Still in this data set, the particulars now being: human, 24 h.
`O=c1c(O)c(-c2ccc(O)cc2)oc2cc(O)cc(O)c12` [Kaempferol, kaempferol]: the “Cytotoxicity (cytotoxic concentration)” value is 30 µM.
Still for that read-out and setting: the figure for `O=c1cc(-c2ccc(O)c(O)c2)oc2cc(O)cc(O)c12` [Luteolin, luteolin] is 20 µM; for `O=c1c(O)c(-c2cc(O)c(O)c(O)c2)oc2cc(O)cc(O)c12` [Myricetin, myricetin] it is 200 µM.
Same read-out and setting: the figure for `O=c1c(O)c(-c2ccc(O)c(O)c2)oc2cc(O)cc(O)c12` [Quercetin, quercetin] is above 20 µM.

Still in this data set, the particulars now being: read-out: cytotoxicity CC50; Example 3; median cytotoxic concentration, 24 h.
Take `O=c1c(O[C@@H]2O[C@H](CO)[C@@H](O)[C@H](O)[C@H]2O)c(-c2ccc(O)c(O)c2)oc2cc(O)cc(O)c12` [Q-3-G, quercetin-3-β-D-glucoside]: the CC50 is above 200 µM.
The same measure, in the same setting: the figure for (−)-epigallocatechin gallate [EGCG] is above 100 µM.
